According to patent publication US20010049389A1, “Arthropod-controlling composition” (priority 2000, published 2001):

Experiments:
Type in all cases: in vivo
[1] = test system: adult copra mites (Tyrophagus putrescentiae); experiment: Test Example 11: treated drawing paper, copra mites; conditions: drawing paper 800 mg/m^2, 25° C., 75% humidity, 24 hours
Procedure: On a black drawing paper having 38 mm in diameter, 0.2 ml of an acetone solution of the Pyrone Compound was added dropwise and air-dried. The treated dosage was 800 mg/m^2. The drawing paper was set on an aluminum plate having 38 mm in diameter and adhesives were put on the edge to prevent for tested mites to escape. About 30 adult copra mites (Tyrophagus putrescentiae) were released on the drawing paper and kept at 25° C. and 75% of humidity for 24 hours. After that, the mortality was observed. The result was 93%.

[2] = test system: adult houseflies (Musca domestica); experiment: Test Example 1: oil solution spray in glass chamber, knock-down of houseflies; conditions: 0.7 ml of 0.5% oil solution (Preparation example 9) sprayed in 0.34 m^3 glass chamber
Procedure: Ten (5 males and 5 females) adult houseflies (Musca domestica) were released in a glass chamber (70 cm cube, capacity: 0.34 m^3). Seven-tenth milliliter (0.7 ml) of the oil solution obtained in Preparation example 9 was applied into the chamber with a spray gun at a pressure of 0.9 kg/cm^2. Fifteen minutes after spraying, the knocked-down houseflies were counted. Reference compound was also tested.

[3] = test system: adult smokybrown cockroaches (Periplaneta fuliginosa); experiment: Test Example 5: heating fumigant (ceramic plate) in 5.8 m^3 chamber, smokybrown cockroaches; conditions: heating fumigant (Preparation example 24, 500 mg) at about 200° C. in 5.8 m^3 chamber
Procedure: On the bottom of a cubic chamber having 1.8 m of side (5.8 m^3), the heating fumigant (ceramic plate) obtained in Preparation example 24 with an electric heater was set in the center. Two plastic cups were put at two corners in the chamber, wherein each cup has ten (5 males and 5 females) adult German cockroaches (Blattella germanica) therein. Two hours after turning on an electric current, the ceramic plate was heated to about 200° C. (200±5° C.) and the active ingredient was vaporized. The heating temperature was estimated by measuring a surface temperature of the ceramic plate with radiation pyrometer (TR-0506C produced by Minolta Company) in advance. Then, the knocked-down cockroaches were counted and the knock-down percentage was calculated. Further, the cockroaches were transferred to a clean plastic cup and given foods and water. The mortality was observed after 7 days.
Furthermore, the same tests were performed except that six (3 males and 3 females) adult smokybrown cockroaches (Periplaneta fuliginosa) and six (3 males and 3 females) adult American cockroaches (Periplaneta americana) were used in place of ten German cockroaches.

[4] = test system: whiteflies (Bemisia argentifolii); experiment: Test Example 16: foliar spray on cabbage, whiteflies; conditions: 500 ppm dilution of flowable (Preparation example 7), 30 ml sprayed, after 6 days
Procedure: About 50 whiteflies (Bemisia argentifolii) were put on a cabagge leaf (in first-leaf stage) grown in a 90 ml plastic cup.
The formulation obtained in Preparation example 7 was diluted with water containing a spreading agent (Tokurino produced by Nihon Nohyaku Co.) to make the concentration of the Pyrone Compound to 500 ppm. Thirty milliliters (30 ml) of the dilution were sprayed to the cabbage (in first-leaf stage) and air-dried. The plastic pot was allowed to stand at 25±2° C. in a greenhouse. After 6 days, the mortality was 90% or more.

[5] = test system: termites (Coptotermes formosanus); experiment: Test Example 9: treated soil after 3 months storage, termites; conditions: 10 ml of 0.5% (w/w) solution in 200 g soil, kept 3 months at 40° C. in the dark, after 10 days
Procedure: The Pyrone Compound was dissolved in water to give a 10 ml solution having 0.5% (w/w) of a concentration. The solution was mixed with 200 g of soil and air-dried. After keeping for 3 months at 40° C. and in the dark, about 10 g of the soil were put on a plastic Petri dish having 9 cm in diameter. The soil was wetted with distilled water and 10 termites (Coptotermes formosanus) were released thereon. After 10 days, the termites were observed and the percent moribund was 100%.

[6] = test system: female adult common mosquitoes (Culex pipiens pallens); experiment: Test Example 6: mosquito-coil in 0.34 m^3 chamber, knock-down of common mosquitoes; conditions: 1% mosquito-coil (Preparation example 18) burnt in 0.34 m^3 chamber, after 15 minutes
Procedure: On the bottom center of a cubic chamber having 70 cm of side (0.34 m^3), the mosquito-coil obtained in Preparation example 18 was set in a mosquito-coil holder. The mosquito-coil was ignited and the air in the chamber was stirred with a battery-type small electric fun. After that, the mosquito-coil and the electric fun were taken out and twenty female adult common mosquitoes (Culex pipiens pallens) were released into the chamber. After 15 minutes, the knock-down percentage was observed. Reference compound was also tested.

[7] = test system: cotton aphids (Aphis gossypii); experiment: Test Example 15: foliar spray on cucumber, cotton aphids; conditions: 500 ppm dilution of flowable (Preparation example 7), 30 ml sprayed, after 6 days
Procedure: About 30 cotton aphids (Aphis gossypii) were put on a cucumber leaf (in first-leaf stage) grown in a 90 ml plastic cup.
Next day, the formulation obtained in Preparation example 7 was diluted with water containing a spreading agent (Tokurino produced by Nihon Nohyaku Co.) to make the concentration of the Pyrone Compound to 500 ppm. Thirty milliliters (30 ml) of the dilution were sprayed to the cucumber and air-dried. The plastic pot was put in a container and allowed to stand at 22±2° C. in a greenhouse. After 6 days, the mortality was 90% or more.

[8] = test system: adult German cockroaches (Blattella germanica); experiment: Test Example 4: smoking formulation in 28 m^3 chamber, German cockroaches; conditions: 10 g smoking (Preparation example 25) in 28 m^3 chamber
From the text: In a test chamber of 3 m×4 m and 2.3 m in height (28 m^3), two plastic cups were put at two corners, wherein each cup has ten (5 males and 5 females) adult German cockroaches (Blattella germanica) therein. Ten grams (10 g) of the smoking obtained in Preparation example 25 and 50g of magnesium oxide were charged into each of the cells in an aluminum container having an aluminum wall. The cell charged magnesium oxide has small holes. The aluminum container was dipped into water in the plastic container set in the test chamber. The smoking was heated to release the vaporized active ingredient by the reaction heats of magnesium oxide with water. After 2 hours, knock-down percentage was observed. Further, the cockroaches were transferred to a clean plastic cup and given foods and water. The mortality was observed after 7 days.

[9] = test system: first-instar larvae of summer fruit tortrix (Adoxophyes orana fasciata); experiment: Test Example 19: treated artificial food, summer fruit tortrix larvae; conditions: 1 ml of 500 ppm dilution (Preparation example 2) in 6 g artificial food, after 6 days
Procedure: The formulation obtained in Preparation example 2 was diluted with water to make the concentration of the Pyrone Compound to 500 ppm. One milliter (1 ml) of the dilution was added to 6 g of artificial food (Insecta LF produced by Nihon Nosankogyo Co.) in plastic cup having 5.5 cm in diameter. Thirty first-instar larvae of summer fruit tortrix (Adoxophyes orana fasciata) were put into the plastic cup. After 6 days, the mortality was 90% or more.

For `Cc1cc(O)c(C(=O)CC(C)C)c(=O)o1` [The Pyrone Compound], the mortality [1] was 93%, the “Knock-down percentage (%) 15 min. after spraying” value [2] was 95% and the “Mortality (%)” value ([3]; after 7 days) was 83%. The “Knock-down percentage (%)” value ([3]; two hours) was 100%, the mortality [4] was ≥ 90% and the percent moribund [5] was 100%. The “Knock-down percentage (%)” value [6] was 98%, the mortality [7] was ≥ 90% and the “Knock-down percentage (%)” value ([8]; after 2 hours) was 100%. The “Mortality (%)” value ([8]; after 7 days) was 100% and the mortality [9] was ≥ 90%.
